Data published in US20180064654A1, “Sheet Packs And Methods For Treating Skin” (ELC Management LLC, priority 2015, published 2018).

Tests used:
[1] = system: PER1 gene expression in skin cells; assay: PER1 gene expression in skin cells; assay type: cell-based
[2] = system: PER1 gene expression in skin cells; details: "has been shown", no test described; cited from earlier work
[3] = system: per1 gene expression in normal human epidermal keratinocytes (NHEK); assay: per1 promoter luciferase reporter assay in NHEK; assay type: cell-based
Experimental: Perl gene expression in normal human epidermal keratinocytes (NHEK) donors was tested in control cells and cells exposed to ozone using the reporter assay. NHEK were plated at a concentration of 3×10^4 in a black walled, 96 well microtiter plate for 3 hours in EpiLife media. The cells were then transfected in supplement free media with a plasmid that contained luciferase as the reporter gene ligated upstream to a per1 promoter element. In addition, transfection was facilitated by addition of Plus and Lipfectamine reagents (Invitrogen, Carlsbad, Calif.). Transfection in supplement free media was carried out for an additional four hours. This “starves” the cells which in turn causes them to be synchronized in their circadian rhythms. After transfection, full media neat and containing ozone was added and incubated for 16 hours. Then a luciferase reagent, Glo-Bright (Promega Corporation, Madison, Wis.) was added and luminescence measures in an Lmax luminometer (Molecular Devices, Sunnyvale, Calif.).
The test was performed again, and in addition, a peptide with per1 gene activity was tested.
In both tests, NHEK were treated at the start of the test (0 hours) so that they were all synchronized with respect to their circadian rhythm, and expressing per1 at the same time. […]

O=C(/C=C/c1ccc(O)c(O)c1)O[C@@H](C(=O)O)[C@@H](O)C(=O)O [caftaric acid]
PER1 gene expression [1]: does not increase PER1 gene expression

O=C(/C=C/c1ccc(O)c(O)c1)O[C@@H](C(=O)O)[C@@H](OC(=O)/C=C/c1ccc(O)c(O)c1)C(=O)O [cichoric acid]
activation of PER / PER1 [2]: suitable activator of PER and PER1

O=[O+][O-] [ozone]
per1 gene expression ([3]; 24 hours, single treatment, compared with untreated cells (FIG. 6)): lesser, and about equivalent, expression of PER1
per1 activity ([3]; ozone treated NHEK at 0, 6 and 12 hours, vs untreated cells (FIG. 5)): decrease in per1 activity
